Common to all, as to assay: inhibition of tumour cell growth, NCI panel, 48 h
In test [1] the test system is NCI-H226 lung.
Test [2] relates to M14 melanoma.
The test system of test [3] is RPMI-8226 leukemia.
In test [4] the test system is NCI-H23 lung.
In test [5] the test system is U251 CNS.
Test [6] deals with OVCAR-5 ovarian.
Test [7] relates to TK-10 renal.
The test system of test [8] is HT29 colon.
Test [9] deals with HCC-2998 colon.
Test [10] deals with KM12 colon.

“And” between values parts separate entries of the source, which are not always exact repeats. Equal entries are not always repeated.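 Each compound was tested at five concentrations against cells in 96-well plates for 48 hours. GI50: concentration for 50% inhibition of growth. TGI: total growth inhibition.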

Turning to `O=S(=O)([O-])c1cccc2cccc(N=Cc3ccccc3[O-])c12.O=S(=O)([O-])c1cccc2cccc(N=Cc3ccccc3[O-])c12.[O]=[U]=[O]`, the GI50 is 84.9 µM in [1]; 43 µM in test [2]; 39.8 µM in test [3]; 51.5 µM in test [4]; 30.8 µM in test [5]; above 100 µM in test [6]. Further, the results for the GI50 in test [7] and in test [8] were 21.3 µM and 58 µM, respectively. Moreover, the TGI in test [1], in test [2], in test [3], in test [4], in test [5] and in [6] was above 100 µM in each case. Also, the figures for the TGI in test [7] and in [8] were 67.3 µM and above 100 µM, respectively.

As for `O=C1C(Cl)=C(Cl)C(=O)N1C1C2CC3CC(C2)CC1C3` (stereo not drawn), the TGI is above 100 µM in [1]; above 100 µM in [9]; above 100 µM in test [2]; above 80.5 µM in [3]; above 100 µM in test [4]; above 100 µM in test [5]. The TGI in test [6], in test [7] and in test [8] was above 100 µM throughout.

For `Nc1ccccc1C#C/C=C\C#Cc1ccccc1C(F)(F)F`, the GI50 is 0.233 µM in [1]; 0.422 µM in test [2]; 1.46 µM in [3]; 1 µM in [10]; 0.397 µM in test [4]; 0.621 µM in test [5]. The GI50 in [6] is 1.15 µM; in test [7] it was 8.3 µM; in [8], 3.58 µM. In addition, the TGI in [1] was 19.3 µM; in test [2] it was 9.74 µM; in [3], above 51 µM; in [10], 12.7 µM; in [4] it was 5.17 µM; in [5], 15.7 µM. In addition, the TGI was 10.8 µM in test [6], 27.9 µM in test [7] and above 100 µM in test [8].

Regarding `CCOP(=O)(OCC)C(NC(c1ccccc1)c1ccccc1)c1ccccc1` (stereo not drawn), the GI50 in [9] is 14.8 µM; in [2], 15.3 µM; in test [3], 4.18 µM; in test [10], 18.4 µM; in test [4], 14.4 µM; in test [5], 14.5 µM. The GI50 in test [7] was 14.7 µM; in test [8], 32.2 µM. In addition, the TGI was found to be 29.5 µM in [9]; 28.6 µM in [2]; 22.3 µM in [3]; 34.6 µM in test [10]; 28.7 µM in [4]; 28.5 µM in test [5]. The TGI was 28.2 µM in test [7] and above 100 µM in [8].

As to `COc1ccc(C=C2C(=O)OC(C)(C)OC2=O)cc1OC`, the TGI in [9], in [2], in test [3], in test [10], in test [4] and in test [5] was above 100 µM throughout. Further, the TGI in test [6], in [7] and in [8] was above 100 µM in each case.

With `O=C1NC(=S)NC(=O)C1=Cc1cc2c(cc1[N+](=O)[O-])OCO2`, the TGI in test [1], in [9], in test [2], in [3], in test [10] and in test [5] was above 100 µM throughout. The TGI in test [7] was above 100 µM.

For `CC(=O)O[C@H]1C(=O)[C@@]2(C)C(C(OC(=O)c3ccccc3)[C@]3(O)CC(OC(=O)[C@H](OC(=O)CCC(=O)O)C(NC(=O)c4ccccc4)c4ccccc4)C(C)=C1C3(C)C)C1(OC(C)=O)COC1C[C@@H]2OC(=O)CCC(=O)O` (stereo partly drawn), the TGI is 81.1 µM and > 100 µM in test [1]; 42.4 µM in test [9]; above 100 µM in [2]; above 100 µM in test [10]; above 100 µM in [4]; above 100 µM in test [5]. This compound showed a TGI in [7] above 100 µM.

On to `O=C1C=C[C@@]23CC1C(O)C[C@H]2C=Cc1ccccc13` (stereo partly drawn), for which the TGI in [1], in test [9], in [2], in [3], in test [10] and in test [6] was above 100 µM throughout. This compound registered a TGI in [8] above 100 µM.

`C/C(=N/S(=O)(=O)c1ccc(Cl)c(Cl)c1)OCC(C)(C)C`: the TGI in [1], in test [2], in test [3], in [10], in [4] and in test [5] was above 100 µM in each case. Moreover, the TGI in [6], in [7] and in test [8] was above 100 µM in each case.

Turning to `CCCCCCCCCCC/C(=N/O)c1ccc(O)c2ncccc12`, the TGI in test [1] was 11.9 µM; in test [9], 23.1 µM; in [2], 4.8 µM; in test [10], above 100 µM; in test [4] it was 57.4 µM; in [5], 23.5 µM. The TGI in test [6] was 6.66 µM; in [7], above 100 µM; in [8] it was 17.2 µM.

As to `Cc1ccc(NC(=O)CC2C(=O)Nc3ccccc3S2=O)cc1C` (stereo not drawn), the TGI in test [1], in [9], in test [2], in [3], in [4] and in [5] was above 100 µM each time. Besides, the TGI in [6], in test [7] and in test [8] was above 100 µM each time.

On to `O=c1n(C2CCCCC2)c(=C(Cl)Cl)c(=C(Cl)Cl)n1C1CCCCC1`, for which the TGI in test [1], in [9], in [3], in test [10], in test [4] and in [5] was above 100 µM throughout. Besides, the TGI in [6], in test [7] and in test [8] was above 100 µM throughout.

Turning to `CC(=O)Nc1ccc(/C=C/[N+](=O)[O-])cc1`, the TGI was determined as 3.94 µM in [1]; 7.01 µM in test [2]; 4.73 µM in [3]; 26.7 µM in test [10]; 10.9 µM in test [4]; 11.6 µM in test [5]. The TGI in test [6] was 9.25 µM; in [7], 6.89 µM; in test [8] it was 3.93 µM.

On to `CCCC1c2c(ccc3ccccc23)Oc2ccc3ccccc3c21`, for which the TGI was above 100 µM in test [1]; above 100 µM in test [2]; 98.6 µM in test [3]; above 100 µM in test [10]; above 100 µM in test [4]; above 100 µM in [5]. Moreover, the TGI in test [6] was above 100 µM; in test [7], 98.2 µM; in test [8] it was above 100 µM.

Values taken from PubChem BioAssay (NCI).
